Test results as given in patent publication US20050209157A1, “Short bioactive peptides and methods for their use” (priority 2001, published 2005).

Tests used:
Pseudomonas aeruginosa = test: Synergy of Shiva-1 and lysozyme, percent viability; format: cell-based
Description: The percent viability of Pseudomonas aeruginosa was determined relative to blank controls.

S. intermedius 19930 = test: Synergy of Shiva-1 and lysozyme, percent viability; format: cell-based, Staphylococcus intermedius
Description: (§1) The percent viability of gram positive S. intermedius 19930, S. intermedius 20034, and S. aureus was determined relative to blank controls.

S. intermedius 20034 = test: Synergy of Shiva-1 and lysozyme, percent viability; format: cell-based, Staphylococcus intermedius; conditions: lysozyme 10×
Description: as §1

S. aureus = test: Synergy of Shiva-1 and lysozyme, percent viability; format: cell-based, Staphylococcus aureus; conditions: lysozyme 10×
Description: as §1

[1] = system: Pseudomonas syringae pv. tabaci (PSPT)
[2] = system: Pseudomonas solanacearum (PS)
[3] = system: Erwinia caratovora subsp. carotova (EC)
[4] = system: Xanthomonas campestris pv. campestris (XC)

Lysozyme
percent viability (Pseudomonas aeruginosa; peptide concentration 0.01 μM, lysozyme at same molar concentration (1×), relative to blank controls): 100%
percent viability (Pseudomonas aeruginosa; peptide concentration 0.1 μM, lysozyme 1×): 82.2%
percent viability (Pseudomonas aeruginosa; peptide concentration 1 μM, lysozyme 1×): 52.1%
percent viability (Pseudomonas aeruginosa; peptide concentration 5 μM, lysozyme 1×): 7.9%
percent viability (Pseudomonas aeruginosa; peptide concentration 25 μM, lysozyme 1×): 0.4%
percent viability (S. intermedius 19930; peptide concentration 0.01 μM, lysozyme at ten times the molar concentration (10×)): 100%
percent viability (S. intermedius 19930; peptide concentration 0.1 μM, lysozyme 10×): 100%
percent viability (S. intermedius 19930; peptide concentration 0.5 μM, lysozyme 10×): 81.3%
percent viability (S. intermedius 19930; peptide concentration 1 μM, lysozyme 10×): 53%
percent viability (S. intermedius 19930; peptide concentration 5 μM, lysozyme 10×): 49.5%
percent viability (S. intermedius 19930; peptide concentration 10 μM, lysozyme 10×): 34.4%
percent viability (S. intermedius 19930; peptide concentration 50 μM, lysozyme 10×): 22%
percent viability (S. intermedius 20034; peptide concentration 0.01 μM): 100%
percent viability (S. intermedius 20034; peptide concentration 0.5 μM): 59.0%
percent viability (S. intermedius 20034; peptide concentration 5 μM): 38.3%
percent viability (S. intermedius 20034; peptide concentration 50 μM): 10.0%
percent viability (S. aureus; peptide concentration 0.01 μM): 100%
percent viability (S. aureus; peptide concentration 0.1 μM): 100%
percent viability (S. aureus; peptide concentration 0.5 μM): 100%
percent viability (S. aureus; peptide concentration 1 μM): 51.0%
percent viability (S. aureus; peptide concentration 5 μM): 18.4%
percent viability (S. aureus; peptide concentration 10 μM): 13.3%
percent viability (S. aureus; peptide concentration 50 μM): 9.5%
LD50 [1]: >0.19 (key: > indicates greater than 1000.)
LD50 [2]: >16.0 (key: > indicates greater than 1000.)
LD50 [3]: >0.44 (key: > indicates greater than 1000.)
LD50 [4]: >0.027 (key: > indicates greater than 1000.)
